Test results from patent US10980808B2, “Calmodulin inhibitors, Chk2 inhibitors and RSK inhibitors for the treatment of ribosomal disorders and ribosomapathies” (THE CHILDREN'S MEDICAL CENTER CORPORATION, priority 2016, dated 2021).
Structures can show the parent of a compound that is named as a salt.

Legend:
[1] = system: rps29−/− zebrafish embryos; details: previously demonstrated; cited from earlier work
[2] = system: p70S6K and RPS6 phosphorylation in cells; assay: phosphorylation after calcium chelation in cells; assay type: cell-based; details: chelating calcium in cells
Excerpt: (§1) We hypothesize that the CaM inhibition is indirect, CaM is needed for calcium signaling. […] RSK inhibitor: SL and B1. P70s6K inhibitor: PF. In Summary we show: 1) CaM and Chk2 inhibitors reduce S392 phosphorylation of p53—to a much greater extent during ribosomal protein deficiency 2) CaM and Chk2 inhibitors also decrease P-p70S6K to a much greater extent during RP deficiency 3) p70S6K can directly phosphorylate p53 S392 in vitro 4) Total protein levels of RSK, p70S6K and rps6 are increased ruing RP deficiency in vitro and in vivo 5) RSK2 is increased in our microarray in […] vs WT 24 hpf embryos. Protein validates this upregulation 6) Calcium levels are increased during RP deficiency 7) Blocking the CaM-Calcium signaling (CaM inhibitors) or directly inhibiting RSK or p70S6K (Chk2 inhibitors) leads to a decrease in P-p53 and p53 activity. Reduced p53 activity leads to fewer RBCs undergoing apoptosis, alleviating the anemia.

[3] = system: calcium in lysates of RPS19 knocked down cells; assay: colorimetric calcium detection in cellular lysates; assay type: cell-based
Excerpt: as §1

[4] = system: mouse thymocytes; details: cited from earlier work
[5] = system: rps29−/− zebrafish embryos; assay: hemoglobin (benzidine staining) rescue in rps29-/- zebrafish embryos; assay type: in vivo; details: benzidine staining; dihydrochloride
[6] = molecular target: p70S6K (Homo sapiens, UniProt P23443); assay: in vitro kinase profiling (Thermo Fisher SelectScreen), p70S6K; assay type: biochemical
p70S6K, sequence (P23443 whole entry): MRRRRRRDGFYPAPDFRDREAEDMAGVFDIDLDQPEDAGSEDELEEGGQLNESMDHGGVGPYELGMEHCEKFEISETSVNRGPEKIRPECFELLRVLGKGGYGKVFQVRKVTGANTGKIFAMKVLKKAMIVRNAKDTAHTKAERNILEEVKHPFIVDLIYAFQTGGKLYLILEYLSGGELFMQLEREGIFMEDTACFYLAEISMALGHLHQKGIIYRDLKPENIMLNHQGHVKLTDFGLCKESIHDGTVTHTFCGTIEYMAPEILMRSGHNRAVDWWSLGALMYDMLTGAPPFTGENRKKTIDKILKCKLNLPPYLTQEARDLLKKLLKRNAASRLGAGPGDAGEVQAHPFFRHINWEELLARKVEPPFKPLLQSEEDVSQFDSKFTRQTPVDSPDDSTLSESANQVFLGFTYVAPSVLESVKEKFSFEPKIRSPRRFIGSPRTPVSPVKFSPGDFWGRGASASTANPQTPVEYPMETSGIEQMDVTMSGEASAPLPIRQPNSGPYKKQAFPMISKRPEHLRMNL
Excerpt: We asked if CaM and Chk2 inhibitors are blocking specific kinases. The known kinases that phosphorylate S392 are CK2 and p38. […] Thus, the question became what is TFP inhibiting upstream? Is it inhibiting a kinase that phosphorylates S392? We submitted CaM and Chk2 inhibitors for Kinase profiling using Thermo Fisher's SelectScreen.

[7] = system: Chk2 activation in HT29 cells; details: cited from earlier work

NCCCCCCNS(=O)(=O)c1cccc2ccccc12 [W-5]
rescue of the vasculature defect [1]: rescue the vasculature defect

CC(=O)OCOC(=O)CN(CC(=O)OCOC(C)=O)c1ccccc1OCCOc1ccccc1N(CC(=O)OCOC(C)=O)CC(=O)OCOC(C)=O [BAPTA-AM]
RPS6 phosphorylation [2]: reduces
p70S6K phosphorylation [2]: reduces
calcium levels in cellular lysates [3]: reduce the calcium levels

COc1cc2nc(-c3cc(F)ccc3O)nc(NC3CNC[C@H]3C(C)(C)O)c2cc1OC (some centres unmarked) [CCT, CCT 241533 dihydrochloride]
ionizing radiation-induced apoptosis [4]: blocks
hemoglobin (Hb) in rps29−/− embryos [5]: rescue Hb
percent inhibition of in vitro kinase activity, p70S6K [6]: inhibition
Chk2 activation in response to etoposide-induced DNA damage [7]: inhibits
